The text below walks through data of patent publication US10392630B2, “Plants having increased tolerance to herbicides” (BASF AGRO B.V., priority 2013, dated 2019).

One may read the IC50 as the concentration needed to halve the response being measured.

Common to all, as to assay: biochemical
Assay [1] concerns the target T1, Amaranthus mutant PPO (AMARE) (Amaranthus tuberculatus, UniProt Q0NZW7).
T1 sequence (Q0NZW7 1-533): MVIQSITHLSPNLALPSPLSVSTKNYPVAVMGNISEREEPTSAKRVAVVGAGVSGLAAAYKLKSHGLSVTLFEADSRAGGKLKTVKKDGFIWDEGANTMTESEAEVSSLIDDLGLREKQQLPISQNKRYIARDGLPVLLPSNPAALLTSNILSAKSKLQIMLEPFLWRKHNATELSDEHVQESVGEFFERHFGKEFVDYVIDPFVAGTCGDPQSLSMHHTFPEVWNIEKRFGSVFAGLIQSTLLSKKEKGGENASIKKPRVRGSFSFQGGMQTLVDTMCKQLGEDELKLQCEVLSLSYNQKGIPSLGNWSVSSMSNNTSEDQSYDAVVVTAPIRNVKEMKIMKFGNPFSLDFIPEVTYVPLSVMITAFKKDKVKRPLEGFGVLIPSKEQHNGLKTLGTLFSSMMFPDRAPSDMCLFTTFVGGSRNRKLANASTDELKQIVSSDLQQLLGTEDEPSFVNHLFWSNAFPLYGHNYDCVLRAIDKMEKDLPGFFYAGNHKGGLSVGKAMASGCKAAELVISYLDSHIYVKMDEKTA

Assay [2] concerns the target T2, Amaranthus mutant PPO (AMARE) (Amaranthus tuberculatus, UniProt Q0NZW9, F420I/R128A).
T2 sequence (Q0NZW9 1-534 R128A/F420I): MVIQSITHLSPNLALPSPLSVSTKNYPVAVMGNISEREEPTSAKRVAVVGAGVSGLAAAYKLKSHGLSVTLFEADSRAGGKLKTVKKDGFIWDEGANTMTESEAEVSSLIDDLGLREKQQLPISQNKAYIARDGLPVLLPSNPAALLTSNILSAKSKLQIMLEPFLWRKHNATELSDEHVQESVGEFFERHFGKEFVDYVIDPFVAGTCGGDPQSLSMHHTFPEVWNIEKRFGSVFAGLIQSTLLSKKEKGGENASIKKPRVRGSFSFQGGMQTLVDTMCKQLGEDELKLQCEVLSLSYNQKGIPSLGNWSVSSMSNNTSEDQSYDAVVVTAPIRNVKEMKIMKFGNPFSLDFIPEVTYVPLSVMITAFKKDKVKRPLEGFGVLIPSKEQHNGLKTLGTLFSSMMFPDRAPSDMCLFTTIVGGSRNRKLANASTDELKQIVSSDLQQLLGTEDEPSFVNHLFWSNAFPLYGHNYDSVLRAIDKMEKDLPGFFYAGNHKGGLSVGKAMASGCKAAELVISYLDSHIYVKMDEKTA

Assay [3] deals with T3, Amaranthus mutant PPO (AMARE) (Amaranthus tuberculatus, UniProt Q0NZW9, F420I/R128I).
T3 sequence (Q0NZW9 1-534 R128I/F420I): T2 sequence (Q0NZW9 1-534 R128A/F420I) with A128I

Assay [4] addresses T4, Amaranthus mutant PPO (AMARE) (Amaranthus tuberculatus, UniProt Q0NZW9, F420I/R128L).
T4 sequence (Q0NZW9 1-534 R128L/F420I): T2 sequence (Q0NZW9 1-534 R128A/F420I) with A128L

Assay [5] concerns the target T5, Amaranthus mutant PPO (AMARE) (Amaranthus tuberculatus, UniProt Q0NZW9, F420V/R128L).
T5 sequence (Q0NZW9 1-534 R128L/F420V): T2 sequence (Q0NZW9 1-534 R128A/F420I) with A128L, I420V

Numbering of substitutions follows the chain as printed.

Turning to `CC(C)N(C)S(=O)(=O)NC(=O)c1cc(-n2c(=O)cc(C(F)(F)F)n(C)c2=O)c(F)cc1Cl` [saflufenacil], the IC50 in assay [1] is 1600 nM; in assay [2], > 10000 nM; in assay [3], > 10000 nM; in assay [4], > 10000 nM; in assay [5] it was > 10000 nM.

For the compound `C#CCN1C(=O)C(F)(F)Oc2cc(F)c(-n3c(=O)n(C)c(=S)n(C)c3=O)cc21` [BAS 850H], the half-maximal inhibitory concentration (IC50) in assay [1] worked out at 2.12 nM; in assay [2], 24.6 nM; in assay [3] it was 433 nM; in assay [4] it was 1230 nM; in assay [5], 1510 nM.
